The record followed here is patent publication US20230192700A1, “PYRAZOLOPYRAZINES ACTING ON CANCERS VIA INHIBITION OF CDK12” (Bayer Aktiengesellschaft, priority 2020, published 2023).

Experiment [1] has as its target T1, CDK12/CyclinK (Homo sapiens, UniProt Q9NYV4).
T1 construct: His-CDK12 (aa Q696-S1082); made in house; host or cells: Hi-5 insect cells (baculovirus co-infection with CycK and yeast CAK1)
Nature of the experiment: CDK12/CycK high ATP kinase assay (TR-FRET). The experiment is classed as biochemical. The conditions noted are these: 2 mM ATP (high ATP); median; read-out: CDK12/CyclinK, 2 mM ATP (high ATP), IC50 - [mol/l] (median). The source says: 2.2 CDK12/CycK high ATP Kinase Assay
In the context of the present invention, the term “IC50 CDK12 hATP” refers to the ICso values obtained according to the assay described in this section (2.2) herein below, i.e. the IC50 values for the inhibition of CDK12 at high ATP.
CDK12/CycK -inhibitory activity of compounds of the present invention at 2 millimol/L adenosine-tri-phosphate (ATP) was quantified employing the TR-FRET (TR-FRET=Time Resolved Fluorescence Energy Transfer) based CDK12/CycK activity inhibition assay as described in the following paragraphs.
A complex of human recombinant CDK12 and human recombinant CycK (both N-terminally His-tagged, expression and purification as described above) was used as enzyme. As substrate for the kinase reaction biotinylated peptide biotin-Ahx-KFELLPTPPLSPSRRSGL (C-terminus in amid form) was used which can be purchased e.g. form the company Biosyntan (Berlin-Buch, Germany).
For the assay 50 nanoL of a 100 fold concentrated solution of the test compound in DMSO was pipetted into either a black low volume 384 well microtiter plate or a black 1536 well microtiter plate (both Greiner Bio-One, Frickenhausen, Germany), 2 microL of a solution of CDK12/CycK in aqueous assay buffer [25 millimol/L HEPES pH 7.5, 20 millimol/L MgCl2, 5 millimol/L β-glycerophosphate, 2 millimol/L EGTA, 1.0 millimol/L dithiothreitol, 0.01% (v/v) Nonidet-P40 (Sigma), 0.01% (w/v) bovine serum albumin] were added and the mixture was incubated for 15 min at 22° C. to allow pre-binding of the test compounds to the enzyme before the start of the kinase reaction. Then the kinase reaction was started by the addition of 3 microL of a solution ATP (3.33 millimol/L=>final conc. in the 5 microL assay volume is 2 millimol/L) and substrate (1.67 micromol/L=>final conc. in the 5 microL assay volume is 1 micromol/L) in assay buffer and the resulting mixture was incubated for a reaction time of 60 min at 22° C. The concentration of CDK12/CycK was adjusted depending of the activity of the enzyme lot and was chosen appropriate to have the assay in the linear range, typical concentrations were about 0.75 nanomol/L. The reaction was stopped by the addition of 3 microL of a solution of TR-FRET detection reagents (125 nanomol/L streptavidine-XL665 [Cisbio Bioassays, Codolet, France] and 0.67 nanomol/L anti-Phospho-c-Myc (Ser 62) (E1J4K)-antibody from Cell Signalling [#13748] and 2 nanomol/L LANCE EU-W1024 labeled anti-rabbit IgG antibody [Perkin-Elmer, product no. 0083]) in an aqueous EDTA-solution (133 millimol/L EDTA, 0.27% (w/v) bovine serum albumin in 66.7 millimol/L HEPES pH 7.5).
The resulting mixture was incubated 1 h at 22° C. to allow the formation of complex between the phosphorylated biotinylated peptide and the detection reagents. Subsequently the amount of phosphorylated substrate was evaluated by measurement of the resonance energy transfer from the Eu-chelate to the streptavidine-XL. Therefore, the fluorescence emissions at 620 nm and 665 nm after excitation at 350 nm was measured in a TR-FRET reader, e.g. a Pherastar FS (BMG Labtechnologies, Offenburg, Germany) or a Viewlux (Perkin-Elmer). The ratio of the emissions at 665 nm and at […] was taken as the measure for the amount of phosphorylated substrate. The data were normalised (enzyme reaction without inhibitor=0% inhibition, all other assay components but no enzyme=100% inhibition).

The target in experiment [2] is T2, CDK12 (Homo sapiens, UniProt Q9NYV4).
T2 construct: endogenous in cells; host or cells: CAL-120 human breast cancer cells (DSMZ ACC 459)
T2 sequence (Q9NYV4 whole entry): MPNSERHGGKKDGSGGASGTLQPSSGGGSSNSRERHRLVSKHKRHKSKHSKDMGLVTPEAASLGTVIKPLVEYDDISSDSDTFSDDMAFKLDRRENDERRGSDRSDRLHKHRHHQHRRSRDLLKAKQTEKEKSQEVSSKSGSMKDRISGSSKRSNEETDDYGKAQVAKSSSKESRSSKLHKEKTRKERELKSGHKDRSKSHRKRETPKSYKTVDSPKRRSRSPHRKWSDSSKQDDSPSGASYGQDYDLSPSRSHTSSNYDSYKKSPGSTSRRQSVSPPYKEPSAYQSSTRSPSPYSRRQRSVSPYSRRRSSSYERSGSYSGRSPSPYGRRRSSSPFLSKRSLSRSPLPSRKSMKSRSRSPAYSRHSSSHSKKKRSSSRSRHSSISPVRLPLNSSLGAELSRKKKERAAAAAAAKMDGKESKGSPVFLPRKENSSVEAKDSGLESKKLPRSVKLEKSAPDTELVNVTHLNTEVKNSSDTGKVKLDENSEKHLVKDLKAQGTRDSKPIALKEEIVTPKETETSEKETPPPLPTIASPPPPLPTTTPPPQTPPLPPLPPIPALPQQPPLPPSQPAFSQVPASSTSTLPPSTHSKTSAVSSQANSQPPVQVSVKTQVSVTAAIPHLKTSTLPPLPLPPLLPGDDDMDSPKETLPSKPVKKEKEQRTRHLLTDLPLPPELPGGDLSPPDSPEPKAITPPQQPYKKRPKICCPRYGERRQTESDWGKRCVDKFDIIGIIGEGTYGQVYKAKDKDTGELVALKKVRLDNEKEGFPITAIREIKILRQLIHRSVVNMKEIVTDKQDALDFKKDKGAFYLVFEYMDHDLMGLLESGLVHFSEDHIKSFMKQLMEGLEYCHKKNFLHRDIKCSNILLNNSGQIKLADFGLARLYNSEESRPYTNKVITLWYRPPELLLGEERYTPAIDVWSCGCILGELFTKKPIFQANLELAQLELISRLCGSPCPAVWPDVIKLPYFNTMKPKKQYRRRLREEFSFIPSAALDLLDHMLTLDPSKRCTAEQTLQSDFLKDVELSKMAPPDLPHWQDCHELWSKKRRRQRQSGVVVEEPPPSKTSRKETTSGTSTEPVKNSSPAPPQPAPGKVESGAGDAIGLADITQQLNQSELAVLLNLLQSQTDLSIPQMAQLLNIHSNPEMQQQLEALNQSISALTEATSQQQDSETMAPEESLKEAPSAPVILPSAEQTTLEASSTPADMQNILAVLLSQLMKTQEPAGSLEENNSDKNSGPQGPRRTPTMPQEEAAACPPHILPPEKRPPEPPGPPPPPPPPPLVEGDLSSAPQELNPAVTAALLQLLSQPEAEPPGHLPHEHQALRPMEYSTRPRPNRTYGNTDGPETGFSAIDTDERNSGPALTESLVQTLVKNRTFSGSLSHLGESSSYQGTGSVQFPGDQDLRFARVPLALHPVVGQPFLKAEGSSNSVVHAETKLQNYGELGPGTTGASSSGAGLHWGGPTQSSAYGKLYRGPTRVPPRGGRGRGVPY
T2 sequence (O75909 whole entry partner): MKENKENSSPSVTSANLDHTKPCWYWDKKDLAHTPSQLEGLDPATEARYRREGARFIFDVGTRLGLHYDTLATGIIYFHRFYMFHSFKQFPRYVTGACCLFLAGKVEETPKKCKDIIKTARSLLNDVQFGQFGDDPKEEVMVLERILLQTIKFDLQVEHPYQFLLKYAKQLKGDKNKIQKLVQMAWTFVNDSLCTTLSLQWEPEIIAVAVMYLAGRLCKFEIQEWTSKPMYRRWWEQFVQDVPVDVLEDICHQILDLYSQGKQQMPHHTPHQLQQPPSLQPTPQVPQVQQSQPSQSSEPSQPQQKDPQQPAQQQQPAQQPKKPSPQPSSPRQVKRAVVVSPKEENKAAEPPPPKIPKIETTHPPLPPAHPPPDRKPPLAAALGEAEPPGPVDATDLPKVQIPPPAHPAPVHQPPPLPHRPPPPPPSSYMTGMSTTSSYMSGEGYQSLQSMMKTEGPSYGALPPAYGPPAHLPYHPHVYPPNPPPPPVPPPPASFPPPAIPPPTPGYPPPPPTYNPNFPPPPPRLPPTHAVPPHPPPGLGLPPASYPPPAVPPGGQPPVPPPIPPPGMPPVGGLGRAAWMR
As to the kind of experiment: CDK12 nuclear protein level: immunofluorescence/high content analysis in CAL-120 cells. The experiment is classed as cell-based. The method, then: 6. CDK12 Nuclear Protein Level: Immunofluorescence/High Content Analysis
In the context of the present invention, the term “DC50 CDK12” refers to the DC50 values obtained according to the assay described in this section (6) herein below, i.e. the DC50 values for the degradation of CDK12.:
(§1) CAL-120 human breast cancer cells (DSMZ ACC 459) are seeded in 1536-well microtiter plates (800 cells per well) containing 50 nanoL of compounds in Dose-Response. Control wells received DMSO or Reference Example 1. Plates are then incubated for 24 h at 37° C. in an humidified incubator and fixed with 4% PFA for 10 min. Then immunofluorescence (IF) against CDK12 (CellSignalling CDK12 Antibody #11973, rabbit, 1:100 dilution) is performed using standard IF protocols. Cells are then stained with Hoechst 33342 (Life Technologies, H-1399, 0.1 microg/mL) and imaged on an automated confocal microscopy system (e.g. Perkin Elmer Opera Phenix). Nuclear and cytoplasmic intensity as well as the nuclear/cytoplasmic intensity ratio is determined by automated image analysis using custom generated scripts (MetaXpress). Data is then transferred to Genedata Screener software, normalized to DMSO and control and DC50 values (degrading concentration to achieve 50% reduction of nuclear CDK12 staining intensity relative to controls) are reported.

The target in experiment [3] is T3, CYCLIN K (Homo sapiens, UniProt O75909).
T3 construct: endogenous in cells; host or cells: CAL-120 human breast cancer cells (DSMZ ACC 459)
T3 sequence (O75909 whole entry): as the sequence (O75909 whole entry partner) above
T3 sequence (Q9NYV4 whole entry partner): as the sequence (Q9NYV4 whole entry) above
As to the kind of experiment: CYCLIN K nuclear protein level: immunofluorescence/high content analysis in CAL-120 cells. The experiment is classed as cell-based. The conditions noted are these: 24 h, nuclear CCNK staining intensity, median, read-out: CYCLIN K degradation IF, DC50- [mol/l] (median). The protocol:
7. CYCLIN K Nuclear Protein Level: Immunofluorescence/High Content Analysis
In the context of the present invention, the term “DC50 Cyclin K” refers to the DC50 values obtained according to the assay described in this section (7) herein below, i.e. the DC50 values for the degradation of Cyclin K.
as §1, with “CYCLIN K (ThermoFisher Scientific CCNK” for “CDK12 (CellSignalling CDK12”, “# PA5-85020,” for “#11973,”, “1:200” for “1:100”, “CCNK” for “CDK12”

T1 sequence (Q9NYV4 with tags, fused parts or gaps): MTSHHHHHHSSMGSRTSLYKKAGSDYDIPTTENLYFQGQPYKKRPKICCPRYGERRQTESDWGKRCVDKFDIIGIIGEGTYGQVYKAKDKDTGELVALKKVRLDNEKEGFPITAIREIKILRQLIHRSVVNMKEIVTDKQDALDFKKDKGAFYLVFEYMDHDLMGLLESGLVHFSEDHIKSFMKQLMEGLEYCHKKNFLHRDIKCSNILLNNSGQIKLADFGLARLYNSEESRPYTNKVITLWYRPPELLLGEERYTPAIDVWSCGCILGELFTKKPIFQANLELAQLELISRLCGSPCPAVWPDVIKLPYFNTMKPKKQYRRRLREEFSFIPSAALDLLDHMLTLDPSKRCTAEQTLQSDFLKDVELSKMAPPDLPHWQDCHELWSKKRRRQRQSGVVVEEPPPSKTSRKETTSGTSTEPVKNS
T1 sequence (O75909 with tags, fused parts or gaps partner limits assumed): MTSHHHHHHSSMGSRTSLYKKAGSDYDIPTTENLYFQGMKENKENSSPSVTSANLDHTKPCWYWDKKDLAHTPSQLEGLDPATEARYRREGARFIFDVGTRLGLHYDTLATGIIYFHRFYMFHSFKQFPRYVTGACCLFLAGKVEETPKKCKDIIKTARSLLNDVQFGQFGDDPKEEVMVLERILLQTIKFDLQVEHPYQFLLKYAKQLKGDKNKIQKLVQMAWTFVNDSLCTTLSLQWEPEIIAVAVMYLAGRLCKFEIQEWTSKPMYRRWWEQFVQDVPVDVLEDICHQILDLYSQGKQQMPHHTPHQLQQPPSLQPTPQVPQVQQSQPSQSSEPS

For the molecule `CN1CCC(n2nc(NCc3nc4c(OC(F)(F)F)cccc4[nH]3)c3ncc(C4CC4)nc32)CC1` [Example 5, 6-cyclopropyl-1-(1-methylpiperidin-4-yl)-N-{[4-(trifluoromethoxy)-1H-benzimidazol-2-yl]methyl}-1H-pyrazolo[3,4-b]pyrazin-3-amine], the IC50 in experiment [1] was > 20000 nM. The DC50 in experiment [2] (CAL-120 cells, 24 h, nuclear CDK12 staining intensity, median, read-out: CDK12 degradation IF DC50 - [mol/l] (median)) came to 83.4 nM; in experiment [3], 3.46 nM. Besides, the “(IC50 CDK12 high ATP) to (Degradation DC50 CDK12) ratio” value in experiment [2] (ratio of IC50 CDK12 hATP (2 mM ATP) to DC50 CDK12 (IF, CAL-120)) is given as >239.
